Measured values from US8487118B2, “Cyclic diones and their use as insecticides, acaricides and/or fungicides” (Bayer CropScience AG, priority 2009, dated 2013).

Assays:
[1] = tested on: mustard beetle larvae (Phaedon cochleariae); assay: Phaedon cochleariae-Test (PHAECO spray application); assay type: in vivo; conditions: 168 h, spray on Chinese cabbage leaf-disks, after 7 days
Excerpt: Phaedon cochleariae-Test; (PHAECO Spray Application)
(§1) • Solvent: 78.0 parts by weight of acetone • 1.5 parts by weight of dimethylformamide • Emulsifier: 0.5 parts by weight of alkylaryl polyglycolether
Chinese cabbage (Brassica pekinesis) leaf-disks are sprayed with a preparation of the active ingredient of the desired concentration.

[2] = tested on: braun planthopper (Nilaparvata lugens); assay: Nilaparvata lugens-Test (NILALU hydroponic application); assay type: in vivo; conditions: after the specified period of time
Excerpt: Nilaparvata lugens-Test; (NILALU Hydroponic Application)
as §1

[3] = tested on: white fly (Bemisia tabaci); assay: Bemisia tabaci-Test (BEMITA); assay type: in vivo; conditions: 168 h, spray on cotton plants, after 7 days
Excerpt: Bemisia tabaci-Test (BEMITA)
Cotton plants (Gossypium hirsutum) infested with eggs, larvae and pupae of the white fly (Bemisia tabaci) are sprayed with a test solution containing the desired concentration of the active ingredient.

[4] = tested on: two-spotted spider mite (Tetranychus urticae); assay: Tetranychus-Test (OP-resistant); assay type: in vivo; conditions: read-out: mortality in %
Excerpt: Tetranychus-Test (OP-Resistant)

[5] = tested on: fall armyworm larvae (Spodoptera frugiperda); assay: Spodoptera frugiperda-Test (SPODFR spray application); assay type: in vivo; conditions: 168 h, spray on maize leaf sections, after 7 days
Excerpt: Spodoptera frugiperda-Test (SPODFR Spray Application)
(§2) • Solvent: 78.0 parts by weight acetone • 1.5 parts by weight dimethylformamide • Emulsifier: 0.5 parts by weight alkylarylpolyglcolether
Maize (Zea mais) leaf sections are sprayed with a preparation of the active ingredient of the desired concentration. Once dry, the leaf sections are infested with fall armyworm larvae (Spodoptera frugiperda). […] 100% means that all caterpillars have been killed and 0% means that none of the caterpillars have been killed.

[6] = tested on: am. serpentine leaf miner (Liriomyza trifolii); assay: Liriomyza trifolii-Test (LIRITR spray application); assay type: in vivo; conditions: 168 h, spray on French bean leaf-disks, after 7 days
Excerpt: Liriomyza trifolii-Test (LIRITR Spray Application)
as §1
French bean (Phaseolus vulgaris) leaf-disks infested with larvaes of the am. serpentine leaf miner (Liriomyza trifolii) are sprayed with a test solution containing the desired concentration of the active ingredient.

[7] = tested on: cotton aphid (Aphis gossypii); assay: Aphis gossypii Test (APHIGO); assay type: in vivo; conditions: 144 h, spray on cotton leaves, after 6 days
Protocol: Aphis gossypii Test (APHIGO)
(§3) After 6 days mortality in % is determined.

[8] = tested on: green peach aphid (Myzus persicae); assay: Myzus persicae-Test (MYZUPE); assay type: in vivo; conditions: 144 h, spray on cabbage leaves, after 6 days
Protocol: Myzus persicae-Test (MYZUPE)
as §3

Phytophthora infestans = assay type: in vivo; conditions: 500 ppm, tomato, preventive, 7 days after the inoculation
[9] = tested on: mustard beetle larvae (Phaedon cochleariae); assay: Phaedon cochleariae larvae-Test; conditions: in Brassica oleracea, 168 h, read-out: mortality in %
[10] = tested on: larvae of the diamondback moth (Plutella xylostella/sensible strain); assay: Plutella xylostella-Test (PLUTMA); assay type: in vivo; conditions: in Brassica oleracea, 168 h, read-out: mortality in %
Excerpt: Plutella xylostella-Test (PLUTMA)

[11] = tested on: two spotted spidermite (Tetranychus urticae); assay: Tetranychus urticae-Test, OP-resistant (TETRUR spray application); assay type: in vivo; conditions: 144 h, spray on French beans, after 6 days
Excerpt: Tetranychus urticae-Test; (OP-Resistant (TETRUR Spray Application)
as §2

[12] = tested on: green peach aphid (Myzus persicae); assay: Myzus persicae-Test (MYZUPE spray application); assay type: in vivo; conditions: 144 h, spray on Chinese cabbage leaf-disks, after 6 days
Excerpt: Myzus persicae-Test; (MYZUPE Spray Application)
as §2
Chinese cabbage (Brassica pekinesis) leaf-disks infected with all instars of the green peach aphid (Myzus persicae), are sprayed with a preparation of the active ingredient at the desired concentration.

Structure (SMILES) | mortality at 500 g/ha [1] | mortality at 500 g/ha [2] | mortality at 20 ppm [3] | mortality at 500 g/ha [5] | mortality at 500 g/ha [6] | mortality at 500 g/ha [11] | mortality at 500 g/ha [12] | further results
Cc1ccc(-c2ccc(F)cc2)cc1C1=C(O)CC2(CCOCC2)CC1=O [Compound T74] | ≥ 80% | ≥ 80% | ≥ 80% | ≥ 80% | ≥ 80% | – | – | mortality at 20 ppm [4]: ≥ 80%
Cc1ccc(-c2ccc(Cl)cc2)cc1C1=C(O)CC2(CCOCC2)CC1=O [Compound T3] | – | ≥ 80% | ≥ 80% | ≥ 80% | ≥ 80% | ≥ 80% | – | mortality at 100 ppm [7]: ≥ 80%; mortality at 100 ppm [8]: ≥ 80%; Efficacy in % (Phytophthora infestans): 75%; mortality at 100 ppm [9]: ≥ 80%; mortality at 100 ppm [10]: ≥ 80%
Cc1ccc(C)c(C2=C(OC(=O)N(C)CCC#N)CC3(CCOCC3)CC2=O)c1 | – | – | – | – | – | – | – | melting point: 108 to 114 °C
O=C1CC2(CCOCC2)CC(O)=C1c1cc(-c2ccc(F)cc2)ccc1Cl [Compound T75] | – | – | ≥ 80% | – | ≥ 80% | ≥ 80% | ≥ 80% | –
CCc1cc(C)cc(CC)c1C1=C(O)CC2(CCOCC2)CC1=O [Compound T22] | – | – | – | – | – | – | ≥ 80% | –
Cc1ccc(-c2ccc(F)cc2)c(C)c1C1=C(O)CC2(CCOCC2)CC1=O [Compound T76] | ≥ 80% | – | – | ≥ 80% | – | ≥ 80% | ≥ 80% | –
